Source: patent US20210220355A1, “ANTITUMOR AGENT FOR ACUTE MYELOID LEUKEMIA” (FUJIFILM Corporation, priority 2018, published 2021)

Tests used:
[1] = tested on: patients with acute myeloid leukemia; assay: clinical test, repeated QD administration to patients with acute myeloid leukemia (side effects); type: in vivo, human; conditions: AML patients, 10 mg or 20 mg one time a day
[2] = tested on: FLT3-ITD-expressing 32D cell; assay: inhibitory effect on proliferation of mutant FLT3-expressing 32D cell (intracellular ATP level); type: cell-based; conditions: 72 h, Mutation type FLT3-ITD, day 3, ATP level, read-out: Effect determination (IC50 value class), proliferation
Description: (§1) 32D cell line expressing FLT3 gene mutations (FLT3-ITD+D698N, +N676T) found according to the random mutagenesis analysis method was cultured for a predetermined period of time (setting: 37° C. and 5% CO2, steam saturated), and then the cells were plated on a 384-well plate at a cell concentration of 299 cells/well. The random mutagenesis analysis method was carried out according to the following reference document.
(§2) Each of the test substances was dissolved in dimethyl sulfoxide (DMSO) to prepare a DMSO solution containing 20 mmol/L of the test substance. After serially diluting with DMSO and further diluting with a medium containing 10% serum, each of the test substance solutions having a concentration 10 times the final treatment concentration was prepared. […] In addition, a group (a positive control group) in which only DMSO containing no test substance was added to a well in which cells were plated and a group (a negative control group) in which only DMSO containing no test substance was added to a well in which only the medium was added were prepared. On day 3 after adding the test substance solution, the intracellular ATP level was measured with “Cell” ATP Assay reagent Ver. 2 (manufactured by TOYO B-Net Co., Ltd.) to evaluate cell viability.
(§3) The suppression rate was determined by assuming that the amount of luminescence signal in the negative control group corresponded to the suppression of cell viability by 100% and the amount of luminescence signal in the positive control group corresponded to the suppression of cell viability by 0%. […] 3 (manufactured by ITOCHU Techno-Solutions Corporation).

[3] = tested on: FLT3-ITD+D698N-expressing 32D cell; assay: as above; type: cell-based; conditions: for IC50: 32D, 72 h, Mutation type FLT3-ITD + D698N, day 3, ATP level, read-out: Effect determination (IC50 value class), proliferation
Description: as §1, §2, §3

[4] = tested on: FLT3-ITD+N676T-expressing 32D cell; assay: as above; type: cell-based; conditions: for IC50: 32D, 72 h, Mutation type FLT3-ITD + N676T, day 3, ATP level, read-out: Effect determination (IC50 value class), proliferation
Description: as §1, §2, §3

[5] = tested on: acute myeloid leukemia; assay: BID administration test in a patient with acute myeloid leukemia (bone marrow examination); type: in vivo, human; conditions: one AML patient, 75 mg BID before a meal, day 29 of administration; 55% before administration
Description: A patient with acute myeloid leukemia is subjected to the BID administration of Compound A of 25 to 225 mg per administration before having a meal two times a day. A preferred effect (for example, a decrease in the proportion of blast cells in the bone marrow, or a curing effect equal to or higher than PR) is confirmed. The specific doses per administration are 50 mg, 75 mg, 100 mg, or 150 mg. Patients have received chemotherapy with cytarabine, daunorubicin, idarubicin, and the like as preliminary curing, and some patients have not reached CR, CRi, CRp, or PR by preliminary curing. The curing effect is determined by the following criteria. The bone marrow puncture sample is evaluated and determined according to the following criteria. Complete Response (CR): a state in which […], and the neutrophil count and the platelet count are respectively 1,000 counts/μL or more and 100,000 counts/μL or more. Complete Response with incomplete platelet recovery ([…]): a state in which myeloblasts are 5% or less and the neutrophil count is 1,000 counts/μL or more, but the platelet count is 100,000 counts/μL or less. Complete Response with incomplete hematological recovery (CRi): a state in which myeloblasts are 5% or less and there is no blood transfusion dependency, but the neutrophil count is 1,000 counts/μL or less. […]

[6] = tested on: FLT3 phosphorylation; assay: plasma inhibitory activity (PIA) test on patient plasma samples; type: cell-based, human
Description: For 7 patients (patients 1 to 7) who were repeatedly administered with 10 mg of Compound A1 one time a day or 20 mg one time a day in a clinical test involving patients with acute myeloid leukemia, in-plasma concentrations of Compound A1 were measured before administration and after 4 hours after the administration on day 1, day 8, day 15, and day 22 of the first cycle (one cycle is 28 days) and on day 1 of the second cycle, and on the end day of the administration of Compound A1. In addition, a plasma inhibitory activity (PIA) test (Blood, 2006, Vol. 108, p 3477 to 3483) was carried out using plasma samples from the same patients at the same time points. A graph showing a correlation between the in-plasma concentrations and the PIA test results is shown FIG. 1. In FIG. 1, open circles, open rectangles, open triangles, filled circles, filled triangles, filled rectangles, and cross symbols indicate the results of patients 1 to 7, respectively.

Row | Structure (SMILES) | serious side effects [1] | IC50 [2] | IC50 [3] | inhibitory effect on proliferation, in words ([3]; FLT3-ITD+D698N-expressing 32D cell, compared with FLT3-ITD-expressing 32D cell) | IC50 [4] | inhibitory effect on proliferation, in words ([4]; FLT3-ITD+N676T-expressing 32D cell) | proportion of blast cells in the bone marrow [5] | in-plasma concentration at which the phosphorylation inhibition rate reaches 100% ([6]; based on the regression line of FIG. 1, 7 AML patients given 10 mg or 20 mg one time a day) | in-plasma concentration required to exhibit a remarkable FLT3 phosphorylation inhibition rate ([6]; concluded from PIA test results of FIG. 1)
1 | CCCNc1nc(Nc2ccc(C#N)cc2)ncc1C#CCCCNC(=O)[C@H](C)N(C)C(=O)/C=C/CN(C)C [Compound A1, (S,E)-N-(1-((5-(2-((4-cyanophenyl)amino)-4-(propylamino)pyrimidin-5-yl)-4-pentyn-1-yl)amino)-1-oxopropan-2-yl)-4-(dimethylamino)-N-methyl-2-butenamide] | No serious side effects were observed | 0.1 to 0.5 nM | 0.5 to 1 nM | strong inhibitory effect | 0.5 to 1 nM | strong inhibitory effect | 18% | exceeds 30 ng/mL | ≥ 40 ng/mL
2 | CCc1nc(C(N)=O)c(Nc2ccc(N3CCC(N4CCN(C)CC4)CC3)c(OC)c2)nc1NC1CCOCC1 [Gilteritinib, 6-ethyl-3-[3-methoxy-4-[4-(4-methylpiperazin-1-yl)piperidin-1-yl]anilino]-5-(oxan-4-ylamino) pyrazine-2-carboxamide, reference compound] |  | 1 to 5 nM | 10 to 50 nM |  | 5 to 10 nM |  |  |  | 
